The values below come from patent US20250179103A1, “6-OXODECAHYDROPYRROLO[1,2-A][1,5]DIAZOCINE AND 6-OXODECAHYDRO-4H-PYRROLO[2,1-D][1,5]THIAZOCINE DERIVATIVES AS STAT3 AND STAT6 MODULATORS FOR THE TREATMENT OF CANCER AND INFLAMMATORY CONDITIONS” (Recludix Pharma, Inc., priority 2022, published 2025).

The target in assay [1] is T1, Recombinant STAT6 protein (STAT6(W123-T658)) (Homo sapiens, UniProt P42226).
T1 construct: Recombinant STAT6 protein (STAT6(W123-T658))
T1 sequence (P42226 123-658): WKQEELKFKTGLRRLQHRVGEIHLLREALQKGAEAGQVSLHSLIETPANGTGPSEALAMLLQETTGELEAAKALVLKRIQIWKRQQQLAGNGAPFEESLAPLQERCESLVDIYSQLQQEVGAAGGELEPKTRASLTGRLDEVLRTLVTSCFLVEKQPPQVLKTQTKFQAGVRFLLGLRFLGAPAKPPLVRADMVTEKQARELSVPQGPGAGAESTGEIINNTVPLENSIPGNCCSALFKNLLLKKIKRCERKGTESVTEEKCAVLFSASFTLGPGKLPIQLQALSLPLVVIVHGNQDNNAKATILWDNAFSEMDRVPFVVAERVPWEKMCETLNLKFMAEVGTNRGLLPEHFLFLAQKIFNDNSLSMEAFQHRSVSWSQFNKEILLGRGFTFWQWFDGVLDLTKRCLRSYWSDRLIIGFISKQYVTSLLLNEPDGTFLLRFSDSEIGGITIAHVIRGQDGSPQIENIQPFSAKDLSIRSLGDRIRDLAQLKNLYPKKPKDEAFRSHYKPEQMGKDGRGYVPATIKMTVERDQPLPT
In words: STAT6 Fluorescence Polarization (FP) Assay. It counts as binding. As to conditions: STAT6(W123-T658) 250 nM, probe 5-FAM-ApYKPFQDLI-NH2 2 nM, 45-minute incubation. In a few lines: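 Displacement of a fluorescent phosphotyrosine peptide (5-FAM-ApYKPFQDLI-NH2, 2 nM) from STAT6(W123-T658) (250 nM), 1% DMSO, pH 7.4 HEPES buffer. After 45 min at room temperature, polarization (mP) was plotted versus log compound concentration and fitted by nonlinear regression to give IC50.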
A general note: Polarisation of emitted light reports the rotation of a fluorescent probe.

For assay [2], the target named is T2, Recombinant STAT3 protein (STAT3(G127-I722)) (Homo sapiens, UniProt P40763).
T2 construct: Recombinant STAT3 protein (STAT3(G127-I722))
The assay is described as follows: STAT3 Fluorescence Polarization (FP) Assay. In kind it is binding. Particulars: STAT3(G127-I722) 25 nM, probe 5-FAM-GpYLPQTV-NH2 2 nM, 45-minute incubation. In a few lines: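 STAT3(G127-I722), 25 nM, was mixed with 2 nM 5-FAM-GpYLPQTV-NH2 probe in HEPES pH 7.4 buffer with 1% DMSO and serially diluted compound. FP (mP) was read after 45 min at room temperature. IC50 came from nonlinear regression.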

In general, IC50 refers to the concentration that gives 50% inhibition.

T2 sequence (P40763 127-722): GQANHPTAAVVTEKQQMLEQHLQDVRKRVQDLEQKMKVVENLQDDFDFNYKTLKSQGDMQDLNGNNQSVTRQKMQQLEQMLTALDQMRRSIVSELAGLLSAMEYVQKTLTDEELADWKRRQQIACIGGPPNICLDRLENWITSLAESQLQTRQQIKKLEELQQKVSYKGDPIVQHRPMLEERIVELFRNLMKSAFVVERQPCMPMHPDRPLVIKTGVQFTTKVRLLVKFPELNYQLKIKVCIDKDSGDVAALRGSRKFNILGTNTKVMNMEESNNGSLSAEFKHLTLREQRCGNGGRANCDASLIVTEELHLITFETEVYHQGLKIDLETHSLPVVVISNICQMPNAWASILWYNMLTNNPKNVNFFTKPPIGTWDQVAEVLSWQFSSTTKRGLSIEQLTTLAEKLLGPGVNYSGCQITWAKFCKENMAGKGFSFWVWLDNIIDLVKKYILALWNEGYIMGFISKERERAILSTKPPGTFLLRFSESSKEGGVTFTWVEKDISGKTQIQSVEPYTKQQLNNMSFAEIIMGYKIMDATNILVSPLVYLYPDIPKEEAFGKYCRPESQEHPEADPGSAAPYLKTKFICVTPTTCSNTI

In the case of `CN(C(=O)[C@@H]1CC[C@@H]2CCN(CC(F)(F)F)C[C@H](NC(=O)c3cc4cc(C(F)(F)P(=O)(O)O)ccc4[nH]3)C(=O)N21)c1ccccc1` [Compound 219, (difluoro(2-(((5S,8S,10aR)-8-(methyl(phenyl)carbamoyl)-6-oxo-3-(2,2,2-trifluoroethyl)decahydropyrrolo[1,2-a][1,5]diazocin-5-yl)carbamoyl)-1H-indol-5-yl)methyl)phosphonic acid], the half-inhibitory concentration (IC50) in assay [1] is 300 to 3000 nM; in assay [2] it was 1000 to 10000 nM.

On to `CN(C(=O)[C@@H]1CC[C@@H]2CCN(C(=O)c3ccccc3)C[C@H](NC(=O)c3cc4cc(C(F)(F)P(=O)(O)O)ccc4[nH]3)C(=O)N21)c1ccccc1` [Compound 220, ((2-(((5S,8S,10aR)-3-benzoyl-8-(methyl(phenyl)carbamoyl)-6-oxodecahydropyrrolo[1,2-a][1,5]diazocin-5-yl)carbamoyl)-1H-indol-5-yl)difluoromethyl)phosphonic acid], for which the half-inhibitory concentration (IC50) is 300 to 3000 nM in assay [1] and more than 10000 nM in assay [2].

As for `CC(C)C(=O)N1CC[C@H]2CC[C@@H](C(=O)N(C)c3ccccc3)N2C(=O)[C@@H](NC(=O)c2cc3cc(C(F)(F)P(=O)(O)O)ccc3[nH]2)C1` [Compound 221, (difluoro(2-(((5S,8S,10aR)-3-isobutyryl-8-(methyl(phenyl)carbamoyl)-6-oxodecahydropyrrolo[1,2-a][1,5]diazocin-5-yl)carbamoyl)-1H-indol-5-yl)methyl)phosphonic acid], the values for the 50% inhibitory concentration (IC50) in assay [1] and in assay [2] were 300 to 3000 nM and 1000 to 10000 nM, respectively.

Consider `CN(C)C(=O)[C@@H]1CC[C@@H]2CCN(c3ccccc3)C[C@H](NC(=O)c3cc4cc(C(F)(F)P(=O)(O)O)ccc4[nH]3)C(=O)N21` [Compound 223, ((2-(((5S,8S,10aR)-8-(dimethylcarbamoyl)-6-oxo-3-phenyldecahydropyrrolo[1,2-a][1,5]diazocin-5-yl)carbamoyl)-1H-indol-5-yl)difluoromethyl)phosphonic acid], for which the half-maximal inhibitory concentration (IC50) in assay [1] lay within 300 to 3000 nM; in assay [2], 1000 to 10000 nM.

Take `CC(C)CN1CC[C@H]2CC[C@@H](C(=O)N(C)C)N2C(=O)[C@@H](NC(=O)c2cc3cc(C(F)(F)P(=O)(O)O)ccc3[nH]2)C1` [Compound 224, ((2-(((5S,8S,10aR)-8-(dimethylcarbamoyl)-3-isobutyl-6-oxodecahydropyrrolo[1,2-a][1,5]diazocin-5-yl)carbamoyl)-1H-indol-5-yl)difluoromethyl)phosphonic acid]: the IC50 in assay [1] is 3000 to 30000 nM; in assay [2] it was 1000 to 10000 nM.

On to `CN(C)C(=O)[C@@H]1CC[C@@H]2CCN(Cc3ccccc3)C[C@H](NC(=O)c3cc4cc(C(F)(F)P(=O)(O)O)ccc4[nH]3)C(=O)N21` [Compound 225, ((2-(((5S,8S,10aR)-3-benzyl-8-(dimethylcarbamoyl)-6-oxodecahydropyrrolo[1,2-a][1,5]diazocin-5-yl)carbamoyl)-1H-indol-5-yl)difluoromethyl)phosphonic acid], for which the IC50 in assay [1] was in the range of 3000 to 30000 nM; in assay [2], 1000 to 10000 nM.

As to `CCN1CC[C@H](NC(=O)c2cc3cc(C(F)(F)P(=O)(O)O)ccc3s2)C(=O)N2[C@H](CC[C@H]2C(=O)N2CC(c3cccnc3)C2)C1` [Compound 226, ((2-(((5S,8S,10aR)-2-ethyl-6-oxo-8-(3-(pyridin-3-yl)azetidine-1-carbonyl)decahydropyrrolo[1,2-a][1,4]diazocin-5-yl)carbamoyl)benzo[b]thiophen-5-yl)difluoromethyl)phosphonic acid], the concentration for half-maximal inhibition (IC50) in assay [1] was 300 to 3000 nM; in assay [2] it was not above 100 nM.

For the compound `CNC(=O)C[C@@H](Cc1ccc(OC)cc1)NC(=O)[C@@H]1CC[C@@H]2CCN(C(=O)c3n[nH]c4ccc(C)cc34)C[C@H](NC(=O)c3ccc4ccc(C(F)(F)P(=O)(O)O)cc4c3)C(=O)N21` [Compound 229, (difluoro(7-(((5S,8S,10aR)-8-(((R)-1-(4-methoxyphenyl)-4-(methylamino)-4-oxobutan-2-yl)carbamoyl)-3-(5-methyl-1H-indazole-3-carbonyl)-6-oxodecahydropyrrolo[1,2-a][1,5]diazocin-5-yl)carbamoyl)naphthalen-2-yl)methyl)phosphonic acid], the IC50 in assay [1] is not above 300 nM; in assay [2] it was 1000 to 10000 nM.

For the compound `Cc1ccc2[nH]nc(C(=O)N3CC[C@H]4CC[C@@H](C(=O)N(C)C)N4C(=O)[C@@H](NC(=O)c4cc5cc(CP(=O)(O)O)ccc5s4)C3)c2c1` [Compound 230, ((2-(((5S,8S,10aR)-8-(dimethylcarbamoyl)-3-(5-methyl-1H-indazole-3-carbonyl)-6-oxodecahydropyrrolo[1,2-a][1,5]diazocin-5-yl)carbamoyl)benzo[b]thiophen-5-yl)methyl)phosphonic acid], the IC50 is 3000 to 30000 nM in assay [1] and more than 10000 nM in assay [2].

As to `Cc1ccc2[nH]nc(C(=O)N3CC[C@H]4CC[C@@H](C(=O)N(C)C)N4C(=O)[C@@H](NC(=O)c4cc5cc(C(F)(F)P(=O)(O)O)ccc5s4)C3)c2c1` [Compound 231, ((2-(((5S,8S,10aR)-8-(dimethylcarbamoyl)-3-(5-methyl-1H-indazole-3-carbonyl)-6-oxodecahydropyrrolo[1,2-a][1,5]diazocin-5-yl)carbamoyl)benzo[b]thiophen-5-yl)difluoromethyl)phosphonic acid], the results for the IC50 in assay [1] and in assay [2] were not above 300 nM and 1000 to 10000 nM, respectively.

Consider `O=C(N[C@H]1CCN(CC(F)F)C[C@H]2CC[C@@H](C(=O)N3CC(c4cc[nH]c(=O)c4)CC34CC4)N2C1=O)c1ccc2ccc(C(F)(F)P(=O)(O)O)cc2c1` (stereo partly drawn) [Compound 234, ((7-(((5S,8S,10aR)-2-(2,2-difluoroethyl)-6-oxo-8-(6-(2-oxo-1,2-dihydropyridin-4-yl)-4-azaspiro[2.4]heptane-4-carbonyl)decahydropyrrolo[1,2-a][1,4]diazocin-5-yl)carbamoyl)naphthalen-2-yl)difluoromethyl)phosphonic acid], for which the half-maximal inhibitory concentration (IC50) is not above 300 nM in assay [1] and more than 10000 nM in assay [2].

`O=C(N[C@H]1CN(Cc2ccn3ccnc3c2)CC[C@H]2CC[C@@H](C(=O)N3CC(c4cccnc4)C3)N2C1=O)c1cc2cc(CP(=O)(O)O)ccc2s1` [Compound 235, ((2-(((5S,8S,10aR)-3-(imidazo[1,2-a]pyridin-7-ylmethyl)-6-oxo-8-(3-(pyridin-3-yl)azetidine-1-carbonyl)decahydropyrrolo[1,2-a][1,5]diazocin-5-yl)carbamoyl)benzo[b]thiophen-5-yl)methyl)phosphonic acid]: the figures for the IC50 in assay [1] and in assay [2] were more than 30000 nM and not above 100 nM, respectively.

For the compound `CNC(=O)[C@@H]1CC[C@@H]2CCN(C(=O)c3n[nH]c4ccc(C)cc34)C[C@H](NC(=O)c3ccc4ccc(C(F)(F)P(=O)(O)O)cc4c3)C(=O)N21` [Compound 237, (difluoro(7-(((5S,8S,10aR)-3-(5-methyl-1H-indazole-3-carbonyl)-8-(methylcarbamoyl)-6-oxodecahydropyrrolo[1,2-a][1,5]diazocin-5-yl)carbamoyl)naphthalen-2-yl)methyl)phosphonic acid], the IC50 in assay [1] is not above 300 nM; in assay [2] it was 100 to 1000 nM.

Take `CN(C(=O)[C@@H]1CC[C@@H]2CCN(CC(F)F)C[C@H](NC(=O)c3ccc4ccc(C(F)(F)P(=O)(O)O)cc4c3)C(=O)N21)C1CCN(S(C)(=O)=O)CC1` [Compound 244, ((7-(((5S,8S,10aR)-3-(2,2-difluoroethyl)-8-(methyl(1-(methylsulfonyl)piperidin-4-yl)carbamoyl)-6-oxodecahydropyrrolo[1,2-a][1,5]diazocin-5-yl)carbamoyl)naphthalen-2-yl)difluoromethyl)phosphonic acid]: the half-maximal inhibitory concentration (IC50) in assay [1] is 300 to 3000 nM; in assay [2], 1000 to 10000 nM.

With `O=C(N[C@H]1CN(C(=O)NCc2ccccc2)CC[C@H]2CC[C@@H](C(=O)Nc3ccc(-c4ccccc4)cc3)N2C1=O)c1cc2cc(C(F)(F)P(=O)(O)O)ccc2s1` [Compound 251, ((2-(((5S,8S,10aR)-8-([1,1′-biphenyl]-4-ylcarbamoyl)-3-(benzylcarbamoyl)-6-oxodecahydropyrrolo[1,2-a][1,5]diazocin-5-yl)carbamoyl)benzo[b]thiophen-5-yl)difluoromethyl)phosphonic acid], the 50% inhibitory concentration (IC50) in assay [1] fell in the range of 300 to 3000 nM; in assay [2], 100 to 1000 nM.

For the compound `O=C(N[C@H]1CN(C(=O)OCc2ccccc2)CC[C@H]2CC[C@@H](C(=O)Nc3ccc(-c4ccccc4)cc3)N2C1=O)c1cc2cc(C(F)(F)P(=O)(O)O)ccc2s1` [Compound 252, ((2-(((5S,8S,10aR)-8-([1,1′-biphenyl]-4-ylcarbamoyl)-3-((benzyloxy)carbonyl)-6-oxodecahydropyrrolo[1,2-a][1,5]diazocin-5-yl)carbamoyl)benzo[b]thiophen-5-yl)difluoromethyl)phosphonic acid], the IC50 in assay [1] is 300 to 3000 nM; in assay [2] it was 1000 to 10000 nM.
